The text below walks through data of patent publication US20150045410A1, “METHOD OF REGULATING CFTR EXPRESSION AND PROCESSING” (University of Iowa Research Foundation, priority 2012, published 2015).

The series relates to CFTR. Put plainly: Transepithelial conductance and current (Ussing chamber) in primary human airway epithelia. Type of series: cell-based. The method, then:
Airway epithelia from human trachea and primary bronchus removed from organs donated for research were cultured at the air-liquid interface (ALI) (Karp, P. H. et al. An in vitro model of differentiated human airway epithelia. Methods for establishing primary cultures. Methods Mol. Biol. 188, 115-137 (2002)). These studies were approved by the Institutional Review Board of the University of Iowa. Briefly, airway epithelial cells were dissociated from native tissue by pronase enzyme digestion. Permeable membrane inserts (0.6 cm^2 Millipore-PCF, 0.33 cm^2 Costar-Polyester) pre-coated with human placental collagen (IV, Sigma) were seeded with freshly dissociated epithelia. Seeding culture media used was DMEM/F-12 medium supplemented with 5% FBS, 50 units/mL penicillin, 50 μg/mL streptomycin, 50 μg/mL gentamicin, 2 μg/mL fluconazole, and 1.25 μg/mL amphotericin B. For epithelia from cystic fibrosis (CF) patients, the following additional antibiotics were used for the first 5 days: 77 μg/mL ceftazidime, 12.5 μg/mL imipenem and cilastatin, 80 μg/mL tobramycin, 25 μg/mL piperacillin and tazobactam, 20 μg/mL sulfamethoxazole, and 4 μg/mL trimethoprim. After seeding, the cultures were maintained in DMEM/F-12 medium supplemented with 2% Ultroser G (USG, Pall Biosepra) and the above listed antibiotics.
Transepithelial Cl^− current measurements were made in Ussing chambers about 2 weeks post-seeding (Itani, 0. A. et al. Human cystic fibrosis airway epithelia have reduced Cl− conductance but not increased Na+ conductance. Proc. Natl. Acad. Sci. USA 108, 10260-10265 (2011)). Briefly, primary cultures were mounted in a modified Ussing chamber (Jim's Instruments, 8 wells per instrument). Transepithelial Cl^− current was measured under short-circuit current conditions. Cultures were incubated overnight with 10 μM forskolin and 100 μM 3-isobutyl-1-methylxanthine (IBMX). After measuring baseline current, the transepithelial current (It) response to sequential apical addition of 100 μM amiloride (Amil), 100 μM 4,4′-diisothiocyanoto-stilbene-2,2′-disulfonic acid (DIDS), 4.8 mM [Cl^−], 10 μM forskolin and 100 μM 3-isobutyl-1-methylxanthine (IBMX), and 100 μM GlyH-101 was measured. Studies were conducted with a Cl^− concentration gradient containing 135 mM NaCl, 1.2 mM MgCl2, 1.2 mM CaCl2, 2.4 mM K2PO4, 0.6 mM KH2PO4, 5 mM dextrose, and 5 mM Hepes (pH 7.4) on the basolateral surface, and gluconate substituted for Cl^− on the apical side. […]

As to “miR-138 mimic: synthetic modified RNA duplex, sense SEQ ID NO: 4, antisense SEQ ID NO: 5, showing miR-138-like activity”, the “It (transepithelial current) response to cAMP-dependent stimulation” value is “no change” and the “cAMP-stimulated Gt” value is “increased”.
For “SIN3A DsiRNA: Dicer-substrate siRNA against SIN3A, sense SEQ ID NO: 6, antisense SEQ ID NO: 7 (sense GCGAUACAUGAAUUCAGAUACUACC; antisense GGUAGUAUCUGAAUUCAUGUAUCGCUC; chemistry not given here)”, the “It (transepithelial current) response to cAMP-dependent stimulation” value is “no change” and the “cAMP-stimulated Gt” value is recorded as “increased”.
